Data: the supplement of paper PMC10307832

Tests used:
Experiment in all cases: relative viability (nuclei count vs DMSO), 5 days (fraction); higher = more cells survive
201T = system: 201T
Method in brief: (§1)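 Each reported value is a median over duplicate plates. It expresses relative viability: treated-well nuclei count divided by vehicle-well nuclei count. Lung cancer cell lines in 1536-well plates were dosed by pin tool a day after seeding, alone with one drug or with a fixed anchor-drug dose plus five library-drug doses (not always all listed) in √10 steps, and nuclei were counted after 5 days.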

BEN = system: BEN
Method in brief: as §1

CAL-12T = system: CAL-12T
Method in brief: as §1

HCC-44 = system: HCC-44
Method in brief: as §1

HCC-827 = system: HCC-827
Method in brief: as §1

HOP-62 = system: HOP-62
Method in brief: as §1

LCLC-103H = system: LCLC-103H
Method in brief: as §1

LCLC-97TM1 = system: LCLC-97TM1
Method in brief: as §1

LXF-289 = system: LXF-289
Method in brief: as §1

NCI-H1395 = system: NCI-H1395
Method in brief: as §1

NCI-H1437 = system: NCI-H1437
Method in brief: as §1

NCI-H1650 = system: NCI-H1650
Method in brief: as §1

NCI-H1793 = system: NCI-H1793
Method in brief: as §1

NCI-H1944 = system: NCI-H1944
Method in brief: as §1

NCI-H2087 = system: NCI-H2087
Method in brief: as §1

NCI-H2228 = system: NCI-H2228
Method in brief: as §1

NCI-H2405 = system: NCI-H2405
Method in brief: as §1

NCI-H3122 = system: NCI-H3122
Method in brief: as §1

NCI-H322M = system: NCI-H322M
Method in brief: as §1

NCI-H647 = system: NCI-H647
Method in brief: as §1

NCI-H727 = system: NCI-H727
Method in brief: as §1

RERF-LC-KJ = system: RERF-LC-KJ
Method in brief: as §1

SK-LU-1 = system: SK-LU-1
Method in brief: as §1

CC1(C)CCC(c2ccc(Cl)cc2)=C(CN2CCN(c3ccc(C(=O)NS(=O)(=O)c4ccc(N[C@H](CCN5CCOCC5)CSc5ccccc5)c(S(=O)(=O)C(F)(F)F)c4)cc3)CC2)C1 [Navitoclax] + CCNC(=O)c1noc(-c2cc(C(C)C)c(O)cc2O)c1-c1ccc(CN2CCOCC2)cc1 [Luminespib] (partner 0.01 µM)
relative viability (201T; first compound 0.005 µM): 1.05
relative viability (201T; first compound 0.01581 µM): 1.1
relative viability (201T; first compound 0.05 µM): 0.982
relative viability (201T; first compound 0.1581 µM): 1.03
relative viability (201T; first compound 0.5 µM): 1.08
relative viability (BEN; first compound 0.005 µM): 0.269
relative viability (BEN; first compound 0.01581 µM): 0.271
relative viability (BEN; first compound 0.05 µM): 0.22
relative viability (BEN; first compound 0.1581 µM): 0.266
relative viability (BEN; first compound 0.5 µM): 0.0778
relative viability (CAL-12T; first compound 0.005 µM): 0.308
relative viability (CAL-12T; first compound 0.01581 µM): 0.563
relative viability (CAL-12T; first compound 0.05 µM): 0.708
relative viability (CAL-12T; first compound 0.1581 µM): 0.826
relative viability (CAL-12T; first compound 0.5 µM): 0.251
relative viability (HCC-44; first compound 0.05 µM): 1.33
relative viability (HCC-44; first compound 0.5 µM): 0.823
relative viability (HCC-827; first compound 0.005 µM): 0.681
relative viability (HCC-827; first compound 0.01581 µM): 0.699
relative viability (HCC-827; first compound 0.05 µM): 0.49
relative viability (HCC-827; first compound 0.1581 µM): 0.58
relative viability (HCC-827; first compound 0.5 µM): 0.69
relative viability (HOP-62; first compound 0.005 µM): 0.913
relative viability (HOP-62; first compound 0.01581 µM): 0.937
relative viability (HOP-62; first compound 0.05 µM): 0.895
relative viability (HOP-62; first compound 0.1581 µM): 0.894
relative viability (HOP-62; first compound 0.5 µM): 0.993
relative viability (LCLC-103H; first compound 0.005 µM): 1.04
relative viability (LCLC-103H; first compound 0.01581 µM): 1.03
relative viability (LCLC-103H; first compound 0.05 µM): 1.08
relative viability (LCLC-103H; first compound 0.1581 µM): 1.02
relative viability (LCLC-103H; first compound 0.5 µM): 0.884
relative viability (LCLC-97TM1; first compound 0.005 µM): 0.74
relative viability (LCLC-97TM1; first compound 0.01581 µM): 0.8
relative viability (LCLC-97TM1; first compound 0.05 µM): 0.733
relative viability (LCLC-97TM1; first compound 0.1581 µM): 0.779
relative viability (LCLC-97TM1; first compound 0.5 µM): 0.857
relative viability (LXF-289; first compound 0.005 µM): 0.631
relative viability (LXF-289; first compound 0.01581 µM): 0.754
relative viability (LXF-289; first compound 0.05 µM): 0.725
relative viability (LXF-289; first compound 0.1581 µM): 0.584
relative viability (LXF-289; first compound 0.5 µM): 0.636
relative viability (NCI-H1395; first compound 0.005 µM): 0.741
relative viability (NCI-H1395; first compound 0.01581 µM): 0.836
relative viability (NCI-H1395; first compound 0.05 µM): 0.714
relative viability (NCI-H1395; first compound 0.1581 µM): 0.577
relative viability (NCI-H1395; first compound 0.5 µM): 0.793
relative viability (NCI-H1437; first compound 0.005 µM): 1.12
relative viability (NCI-H1437; first compound 0.01581 µM): 1.1
relative viability (NCI-H1437; first compound 0.05 µM): 1.09
relative viability (NCI-H1437; first compound 0.1581 µM): 1.14
relative viability (NCI-H1437; first compound 0.5 µM): 1.01
relative viability (NCI-H1650; first compound 0.005 µM): 0.214
relative viability (NCI-H1650; first compound 0.01581 µM): 0.21
relative viability (NCI-H1650; first compound 0.05 µM): 0.167
relative viability (NCI-H1650; first compound 0.1581 µM): 0.206
relative viability (NCI-H1650; first compound 0.5 µM): 0.192
relative viability (NCI-H1793; first compound 0.005 µM): 0.262
relative viability (NCI-H1793; first compound 0.01581 µM): 0.177
relative viability (NCI-H1793; first compound 0.1581 µM): 0.216
relative viability (NCI-H1793; first compound 0.5 µM): 0.17
relative viability (NCI-H1944; first compound 0.005 µM): 0.731
relative viability (NCI-H1944; first compound 0.01581 µM): 0.717
relative viability (NCI-H1944; first compound 0.05 µM): 0.553
relative viability (NCI-H1944; first compound 0.1581 µM): 0.733
relative viability (NCI-H1944; first compound 0.5 µM): 0.665
relative viability (NCI-H2087; first compound 0.005 µM): 0.207
relative viability (NCI-H2087; first compound 0.01581 µM): 0.204
relative viability (NCI-H2087; first compound 0.1581 µM): 0.153
relative viability (NCI-H2087; first compound 0.5 µM): 0.208
relative viability (NCI-H2228; first compound 0.005 µM): 0.148
relative viability (NCI-H2228; first compound 0.01581 µM): 0.148
relative viability (NCI-H2228; first compound 0.1581 µM): 0.146
relative viability (NCI-H2228; first compound 0.5 µM): 0.142
relative viability (NCI-H2405; first compound 0.005 µM): 0.89
relative viability (NCI-H2405; first compound 0.01581 µM): 0.727
relative viability (NCI-H2405; first compound 0.05 µM): 0.755
relative viability (NCI-H2405; first compound 0.1581 µM): 0.765
relative viability (NCI-H2405; first compound 0.5 µM): 0.702
relative viability (NCI-H3122; first compound 0.005 µM): 0.09
relative viability (NCI-H3122; first compound 0.01581 µM): 0.0825
relative viability (NCI-H3122; first compound 0.05 µM): 0.11
relative viability (NCI-H3122; first compound 0.1581 µM): 0.083
relative viability (NCI-H3122; first compound 0.5 µM): 0.0991
relative viability (NCI-H322M; first compound 0.005 µM): 0.81
relative viability (NCI-H322M; first compound 0.01581 µM): 1.12
relative viability (NCI-H322M; first compound 0.05 µM): 1.07
relative viability (NCI-H322M; first compound 0.1581 µM): 0.908
relative viability (NCI-H322M; first compound 0.5 µM): 0.908
relative viability (NCI-H647; first compound 0.005 µM): 0.271
relative viability (NCI-H647; first compound 0.01581 µM): 0.215
relative viability (NCI-H647; first compound 0.05 µM): 0.17
relative viability (NCI-H647; first compound 0.1581 µM): 0.206
relative viability (NCI-H647; first compound 0.5 µM): 0.133
relative viability (NCI-H727; first compound 0.01581 µM): 0.347
relative viability (NCI-H727; first compound 0.1581 µM): 0.275
relative viability (NCI-H727; first compound 0.5 µM): 0.28
relative viability (RERF-LC-KJ; first compound 0.005 µM): 1.32
relative viability (RERF-LC-KJ; first compound 0.01581 µM): 1.23
relative viability (RERF-LC-KJ; first compound 0.05 µM): 1.17
relative viability (RERF-LC-KJ; first compound 0.1581 µM): 1.18
relative viability (RERF-LC-KJ; first compound 0.5 µM): 1.04
relative viability (SK-LU-1; first compound 0.005 µM): 0.205
relative viability (SK-LU-1; first compound 0.01581 µM): 0.179
relative viability (SK-LU-1; first compound 0.05 µM): 0.199
relative viability (SK-LU-1; first compound 0.1581 µM): 0.199
relative viability (SK-LU-1; first compound 0.5 µM): 0.201
